Among the data in patent US12421191B2, “3-hydroxyoxindole derivatives as CRHR2 antagonist” (RaQualia Pharma Inc., priority 2020, dated 2025) are IC50 values, retold here.

SMILES strings stand for the structures.

The assay has as its target T1, human CRHR2-alpha (Homo sapiens, UniProt Q13324).
T1 construct: host or cells: CHO-K1
T1 sequence (Q13324 1-411): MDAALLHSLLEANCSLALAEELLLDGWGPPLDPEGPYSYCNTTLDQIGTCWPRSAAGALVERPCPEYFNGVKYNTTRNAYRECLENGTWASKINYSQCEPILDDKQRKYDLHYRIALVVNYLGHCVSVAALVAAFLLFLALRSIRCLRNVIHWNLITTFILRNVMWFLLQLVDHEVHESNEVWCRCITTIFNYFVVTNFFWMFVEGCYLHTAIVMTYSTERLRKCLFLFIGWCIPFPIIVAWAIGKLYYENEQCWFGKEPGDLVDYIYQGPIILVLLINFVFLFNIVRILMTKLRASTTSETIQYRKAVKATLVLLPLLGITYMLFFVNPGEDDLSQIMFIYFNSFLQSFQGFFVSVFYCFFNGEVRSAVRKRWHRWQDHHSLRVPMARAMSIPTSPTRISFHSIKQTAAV
Kind of assay: cAMP functional assay for human CRHR2 (LANCE Ultra TR-FRET). It counts as cell-based. The following applies: inhibition of cAMP production in CHO-K1 cells stably expressing human CRHR2-alpha, EC90 of human urocortin2 as agonist; read-out: IC50 against CRHR2. The protocol: cAMP functional assay for human CRHR2 The ability of the compounds of this invention to inhibit either CRHR2 is assessed by 3′,5′-cyclic adenosine monophosphate (cAMP) production in cells using the LANCE Ultra cAMP assay kit (ParkinElmer), which are designed based on the homogeneous time-resolved fluorescence resonance energy transfer (TR-FRET) immunoassay.
CHO-K1 (Chinese hamster ovary) cells stably expressing human CRHR2-alpha (DiscoveRX, Cat. 95-0048C2) are grown in HAM's F12 media supplemented with 10% fetal bovine serum (FBS), 100 units/mL penicillin G, 100 microg/mL hygromycin and 0.5 microg/mL geneticin at 37° C. in 5% CO2 humidified incubator to 80% confluence. After 7 hours starvation treatment in culture media containing 0.1% FBS, the cells are washed with Hanks balanced salt solution (HBSS) and cryopreserved.
For cAMP assay, frozen cells are thawed and washed with HBSS, followed by resuspending cells in assay buffer (HBSS containing 0.1% bovine serum albumin, 0.5 mM isobutylmethylxanthine and 5 mM Hepes, pH 7.4) at the appropriate concentration for the assay. The cell suspensions are plated on 384-well microplates (Greiner Bio-One) at a density of 4,000 cells per well. After preincubating the cells with various concentrations of the compounds for 30 min at 25° C., an assay buffer containing EC90 concentration of agonist is added and the cells are incubated for 30 min at 25° C. Human urocortin2 (Peptide Institute) is used as agonists for CRHR2. For the termination of assay, europium-labeled cAMP tracer and ULight (registered trademark) dye labeled cAMP antibodies, both prepared with Lance-Ultra cAMP detection reagent (PerkinElmer) are added in the plate and incubate for 60 min at 25° C. After incubation, TR-FRET signal is detected by EnVision plate reader (PerkinElmer). The IC50 values for compounds are calculated from dose-response curves by fitting the percent inhibition using XLfit (ID Business Solutions).
As a reminder, the IC50 is the midpoint of a concentration-inhibition curve. Regarding `O=C(N[C@H]1CC[C@H](CN2C(=O)C(O)(c3cccc(Cl)c3F)c3ccccc32)CC1)c1cc(Cl)cnc1C(F)F` (some centres unmarked) [Example 67, 5-chloro-N-((1r,4r)-4-((3-(3-chloro-2-fluorophenyl)-3-hydroxy-2-oxoindolin-1-yl)methyl)cyclohexyl)-2-(difluoromethyl)nicotinamide], the IC50 was less than 200 nM. For `COc1ccc(F)c(C2(O)C(=O)N(C[C@H]3CC[C@H](NC(=O)c4cc(Cl)cnc4C(F)F)CC3)c3ccccc32)c1` (some centres unmarked) [Example 74, 5-chloro-2-(difluoromethyl)-N-((1r,4r)-4-((3-(2-fluoro-5-methoxyphenyl)-3-hydroxy-2-oxoindolin-1-yl)methyl)cyclohexyl) nicotinamide] the value was less than 200 nM.

As for `O=C(N[C@H]1CC[C@H](CN2C(=O)C(O)(c3ccc(F)cn3)c3ccc(F)cc32)CC1)c1cc(Cl)cnc1C(F)F` (some centres unmarked) [Example 79, 5-chloro-2-(difluoromethyl)-N-((1r,4r)-4-((6-fluoro-3-(5-fluoropyridin-2-yl)-3-hydroxy-2-oxoindolin-1-yl)methyl)cyclohexyl) nicotinamide], the IC50 is less than 200 nM. For `O=C(N[C@H]1CC[C@H](CN2C(=O)C(O)(c3ccccc3F)c3ccc(F)cc32)CC1)c1cc(Cl)cnc1C(F)F` (some centres unmarked) [Example 83, 5-chloro-2-(difluoromethyl)-N-((1r,4r)-4-((6-fluoro-3-(2-fluorophenyl)-3-hydroxy-2-oxoindolin-1-yl)methyl)cyclohexyl) nicotinamide] the value was less than 200 nM.

`O=C(N[C@H]1CC[C@H](CN2C(=O)C(O)(c3ccncc3F)c3ccc(F)cc32)CC1)c1cc(Cl)cnc1C(F)F` (some centres unmarked) [Example 85, 5-chloro-2-(difluoromethyl)-N-((1r,4r)-4-((6-fluoro-3-(3-fluoropyridin-4-yl)-3-hydroxy-2-oxoindolin-1-yl)methyl)cyclohexyl) nicotinamide]: the IC50 was less than 200 nM.

Take `O=C(N[C@H]1CC[C@H](CN2C(=O)C(O)(c3ccsc3)c3ccccc32)CC1)c1cc(Cl)cnc1C(F)F` (some centres unmarked) [Example 92, 5-chloro-2-(difluoromethyl)-N-((1r,4r)-4-((3-hydroxy-2-oxo-3-(thiophen-3-yl)indolin-1-yl)methyl)cyclohexyl) nicotinamide]: the half-maximal inhibitory concentration (IC50) is less than 200 nM. For `O=C(N[C@H]1CC[C@H](CN2C(=O)C(O)(c3ccccc3F)c3cc(F)ccc32)CC1)c1cc(Cl)cnc1C(F)F` (some centres unmarked) [Example 93, 5-chloro-2-(difluoromethyl)-N-((1r,4r)-4-((5-fluoro-3-(2-fluorophenyl)-3-hydroxy-2-oxoindolin-1-yl)methyl)cyclohexyl) nicotinamide] the value was less than 200 nM. `O=C(N[C@H]1CC[C@H](CN2C(=O)C(O)(c3ccccc3F)c3cccnc32)CC1)c1cc(Cl)cnc1C(F)F` (some centres unmarked) [Example 94, 5-chloro-2-(difluoromethyl)-N-((1r,4r)-4-((3-(2-fluorophenyl)-3-hydroxy-2-oxo-2,3-dihydro-1H-pyrrolo[2,3-b]pyridin-1-yl)methyl)cyclohexyl) nicotinamide]: the half-maximal inhibitory concentration (IC50) was less than 200 nM. For `O=C(N[C@H]1CC[C@H](CN2C(=O)C(O)(c3sccc3F)c3ccccc32)CC1)c1cc(Cl)cnc1C(F)F` (some centres unmarked) [Example 95, 5-chloro-2-(difluoromethyl)-N-((1r,4r)-4-((3-(3-fluorothiophen-2-yl)-3-hydroxy-2-oxoindolin-1-yl)methyl)cyclohexyl) nicotinamide] the value was less than 200 nM; for `O=C(N[C@H]1CC[C@H](CN2C(=O)C(O)(c3cc(F)cs3)c3ccccc32)CC1)c1cc(Cl)cnc1C(F)F` (some centres unmarked) [Example 98, 5-chloro-2-(difluoromethyl)-N-((1r,4r)-4-((3-(4-fluorothiophen-2-yl)-3-hydroxy-2-oxoindolin-1-yl)methyl)cyclohexyl) nicotinamide], less than 200 nM; for `COc1ccc(C2(O)C(=O)N(C[C@H]3CC[C@H](NC(=O)c4cc(Cl)cnc4C(F)F)CC3)c3ccccc32)s1` (some centres unmarked) [Example 99, 5-chloro-2-(difluoromethyl)-N-((1r,4r)-4-((3-hydroxy-3-(5-methoxythiophen-2-yl)-2-oxoindolin-1-yl)methyl)cyclohexyl) nicotinamide], less than 200 nM.
